Test results as given in ChEMBL document CHEMBL1649339, “Abietane and C20-norabietane diterpenes from the stem bark of Fraxinus sieboldiana and their biological activities” (J Nat Prod, 2010).

How the values were obtained:
[1] = test system: A549; assay: Cytotoxicity against human A549 cells after 24 hrs by MTT assay; type: functional, cell-based; conditions: A549, 24 h
[2] = test system: Bel-7402; assay: Cytotoxicity against human Bel7402 cells after 24 hrs by MTT assay; type: functional, cell-based; conditions: Bel-7402, 24 h
[3] = test system: BGC-823; assay: Cytotoxicity against human BGC823 cells after 24 hrs by MTT assay; type: functional, cell-based; conditions: BGC-823, 24 h
[4] = test system: HCT-8; assay: Cytotoxicity against human HCT8 cells after 24 hrs by MTT assay; type: functional, cell-based; conditions: HCT-8, 24 h
[5] = test system: A2780; assay: cells; conditions: Homo sapiens, A2780, 24 h
Description: Cytotoxicity against human A2780 cells after 24 hrs by MTT assay

[6] = Antiinflammatory activity in PAF-induced rat Polymorphonuclear leukocyte assessed as inhibition of beta-glucuronidase release at 10^-5 M; type: functional
[7] = test system: Influenza A virus; assay: microbe, parasite or virus in culture; type: functional, organism-based; conditions: HEK-293T

| SMILES | IC50 [1] | IC50 [2] | IC50 [3] | IC50 [4] | IC50 [5] | inhibition at 10 µM [6] | IC50 [7] |
| --- | --- | --- | --- | --- | --- | --- | --- |
| CC(C)c1cc2c(cc1O)[C@H]1CCCC(C)(C)[C@@H]1CC2=O | > 10 µM | > 10 µM | > 10 µM | > 10 µM | > 10 µM | 56.1% |  |
| CC(C)c1cc2c(cc1O)[C@@]13CCCC(C)(C)[C@@H]1[C@H](OC3=O)[C@H]2O | > 10 µM | > 10 µM | > 10 µM | > 10 µM | > 10 µM |  |  |
| CC(C)c1cc2c(cc1O)[C@]13CCC[C@]4(C)CO[C@@H]1O[C@H]2C[C@@H]43 | > 10 µM | > 10 µM | > 10 µM | > 10 µM | > 10 µM | 59.7% |  |
| CC(C)c1cc2c(cc1O)[C@]13CCC[C@](C)(CO[C@H]1O)[C@@H]3CC2 | > 10 µM | > 10 µM | > 10 µM | > 10 µM | > 10 µM |  |  |
| CC(C)C1=C[C@]2(O)CC[C@H]3[C@]4(C)CCC[C@]3(C(=O)OC4)C2=CC1=O | > 10 µM | > 10 µM | > 10 µM | > 10 µM | > 10 µM |  |  |
| CC(C)c1cc2c(cc1O)[C@@]1(C=O)CCCC(C)(C)[C@@H]1CC2 | > 10 µM | > 10 µM | > 10 µM | > 10 µM |  | 65.9% |  |
| CC[C@@]1(O)C(=O)OCc2c1cc1n(c2=O)Cc2cc3ccccc3nc2-1 [CAMPTOTHECIN] | 3.6 µM |  |  |  | 0.2 µM |  |  |
| CC(C)c1cc2c(cc1O)C1=CC(=O)CC(C)(C)[C@@H]1CC2 | > 10 µM | > 10 µM | > 10 µM | > 10 µM | > 10 µM |  |  |
| CO[C@@H]1OC[C@@]2(C)CCC[C@@]13c1cc(O)c(C(C)C)cc1CC[C@@H]23 | > 10 µM | > 10 µM | > 10 µM | > 10 µM | > 10 µM |  |  |
| CCO[C@@H]1OC[C@@]2(C)CCC[C@@]13c1cc(O)c(C(C)C)cc1C(=O)C[C@@H]23 | > 10 µM | > 10 µM | > 10 µM | > 10 µM | > 10 µM |  |  |
| CC(C)c1cc2c(cc1O)[C@@]1(O)CCCC(C)(C)[C@@H]1CC2=O | > 10 µM | > 10 µM | > 10 µM | > 10 µM | > 10 µM |  |  |
| CC(C)c1ccc2c(c1)C(=O)C[C@H]1C(C)(C)CCC[C@]21C | > 10 µM | > 10 µM | > 10 µM | > 10 µM | > 10 µM |  | 4.8 µM |
| CCO[C@@H]1C[C@@H]2C(=CC(=O)CC2(C)C)c2cc(O)c(C(C)C)cc21 | > 10 µM | > 10 µM | > 10 µM | > 10 µM | > 10 µM |  |  |
| CC(C)C1=C[C@]23CC[C@H]4[C@]5(C)CCC[C@@]4(C2=CC1=O)[C@@H](OC5)O3 | > 10 µM | > 10 µM | > 10 µM | > 10 µM | > 10 µM |  |  |
| CC(C)c1cc2ccc3c(c2cc1O)C(=O)CCC3(C)C | > 10 µM | > 10 µM | > 10 µM | > 10 µM | > 10 µM |  |  |
| CC(C)C1=C[C@]23O[C@H]2[C@H]2OC(=O)[C@@]4(CCCC(C)(C)[C@H]24)C3=CC1=O | > 10 µM | > 10 µM | > 10 µM | > 10 µM | 1.7 µM |  |  |
| CC(C)c1cc2c(cc1O)[C@@]1(O)CCC[C@](C)(CO)[C@@H]1CC2=O | > 10 µM | > 10 µM | > 10 µM | > 10 µM | > 10 µM |  |  |
| CC(C)c1cc2c(cc1O)[C@@]13CCCC(C)(C)[C@@H]1[C@H](OC3=O)C2=O | > 10 µM | > 10 µM | > 10 µM | > 10 µM | > 10 µM |  |  |
| CO[C@H]1OC[C@@]2(C)CCC[C@@]13c1cc(O)c(C(C)C)cc1CC[C@@H]23 | > 10 µM | > 10 µM | > 10 µM | > 10 µM | > 10 µM |  |  |
| CCO[C@@H]1OC[C@@]2(C)CCC[C@@]13c1cc(O)c(C(C)C)cc1CC[C@@H]23 | > 10 µM | > 10 µM | > 10 µM | > 10 µM | > 10 µM |  |  |
| CC(C)c1cc2c(cc1O)[C@]13CCC[C@](C)(CO[C@@H]1O)[C@@H]3CC2 | > 10 µM | > 10 µM | > 10 µM | > 10 µM | > 10 µM |  |  |
| CC(C)c1cc2c(cc1O)[C@]13CCC[C@](C)(COC1=O)[C@@H]3CC2 | > 10 µM | > 10 µM | > 10 µM | > 10 µM | > 10 µM |  |  |
| CC(C)c1cc2c(cc1O)C1=C(CC2)C(C)(C)CC[C@H]1O | > 10 µM | > 10 µM | > 10 µM | > 10 µM | > 10 µM |  |  |
| CC(C)c1cc2c(cc1O)[C@@]13CCCC(C)(C)[C@@H]1[C@H](OC3=O)[C@@H]2O | 6 µM | > 10 µM | > 10 µM | > 10 µM | > 10 µM |  |  |
